Test results: US12371454B2, “Cyclic peptide compound having Kras inhibitory action” (priority 2019, dated 2025)
Positions of bridges follow the written chain, without caps; N, C: chain ends. Non-standard residues stand in square brackets, D forms with d. Residues, ends and D or L forms follow the SMILES beside them. *: point of attachment. hPhe(3,5-F2-4-CF3) = N[C@@H](CCc1cc(F)c(C(F)(F)F)c(F)c1)C(=O)O; hPhe(3-Cl-4-CF3) = N[C@@H](CCc1ccc(C(F)(F)F)c(Cl)c1)C(=O)O; NMePhe(4-Br) = CN[C@@H](Cc1ccc(Br)cc1)C(=O)O; NMePhe(4-Me) = CN[C@@H](Cc1ccc(C)cc1)C(=O)O; NMeNva(5,5-F2) = CN[C@@H](CCC(F)F)C(=O)O; NMe4Pal = CN[C@@H](Cc1ccncc1)C(=O)O; NMeY = CN[C@@H](Cc1ccc(O)cc1)C(=O)O; NMeCha = CN[C@@H](CC1CCCCC1)C(=O)O; NMeChg = CN[C@H](C(=O)O)C1CCCCC1; NMeI = CC[C@H](C)[C@H](NC)C(=O)O; dNMeF = CN[C@H](Cc1ccccc1)C(=O)O; NMeD = CN[C@@H](CC(=O)O)C(=O)O; NMeL = CN[C@@H](CC(C)C)C(=O)O; NMeA = CN[C@@H](C)C(=O)O; Piperidide = C1CCN(*)CC1; Pyrrolidide = C1CCN(*)C1; Ac5c = NC1(C(=O)O)CCCC1; Aze = O=C(O)[C@@H]1CCN1; Ac4c = NC1(C(=O)O)CCC1; CF3 = FC(F)(F)*; Sar = CNCC(=O)O

Biological target: T1, Kras and SOS1 (biotin-tagged human Kras loaded with GDP, His-tagged human SOS1) (Homo sapiens, UniProt P01116, G12D)
T1 construct: made in house; host or cells: E. coli (stated for Kras only)
Assay: Protein-protein interaction inhibition between Kras and SOS1 (KrasGl2D-SOS PPI) using AlphaScreen
Assay type: binding
Conditions: AlphaScreen; biotin-tagged human Kras loaded with GDP, His-tagged human SOS1; read-out: KRAS G12D-SOS PPI IC50
Summary of the method: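 Donor beads (nickel) hold His-SOS1; acceptor beads (streptavidin) hold biotin-Kras bound to GDP. Signal measured at 520-620 nm following 680 nm excitation.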

T1 sequence (P01116 1-188 isoform P01116-2 G12D): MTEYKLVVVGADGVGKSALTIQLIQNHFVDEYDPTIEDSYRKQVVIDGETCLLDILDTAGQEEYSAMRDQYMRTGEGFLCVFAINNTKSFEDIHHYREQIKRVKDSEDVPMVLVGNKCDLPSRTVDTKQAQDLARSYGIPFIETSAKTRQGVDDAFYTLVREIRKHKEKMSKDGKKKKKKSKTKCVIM

Row | SMILES | IC50 [nM]
1 | CC[C@H](C)[C@@H]1NC(=O)[C@H](C)N(C)C(=O)C[C@@H](C(=O)N(C)C)N(C)C(=O)[C@H]([C@@H](C)CC)N(C)C(=O)C2(CCCC2)NC(=O)[C@@H](Cc2ccccc2)N(C)C(=O)[C@H](CCc2ccc(C(F)(F)F)c(Cl)c2)NC(=O)CN(C)C(=O)[C@H](Cc2ccc(C)cc2)N(C)C(=O)[C@@H]2CCN2C(=O)[C@H](C)N(C)C1=O [Compound 1889] ([NMeA]I[NMeA][Aze][NMePhe(4-Me)][Sar][hPhe(3-Cl-4-CF3)][dNMeF][Ac5c][NMeI][NMeD]-NMe2; lactam N-11) | 98
2 | CC[C@H](C)[C@@H]1NC(=O)[C@H](C)N(C)C(=O)C[C@@H](C(=O)N(C)C)N(C)C(=O)[C@H]([C@@H](C)CC)N(C)C(=O)C2(CCCC2)NC(=O)[C@H](Cc2ccc(Br)cc2)N(C)C(=O)[C@H](CCc2ccc(C(F)(F)F)c(Cl)c2)NC(=O)CN(C)C(=O)[C@H](Cc2ccc(C)cc2)N(C)C(=O)[C@@H]2CCN2C(=O)[C@H](C)N(C)C1=O [Compound 1893] ([NMeA]I[NMeA][Aze][NMePhe(4-Me)][Sar][hPhe(3-Cl-4-CF3)][NMePhe(4-Br)][Ac5c][NMeI][NMeD]-NMe2; lactam N-11) | 14
3 | CC[C@H](C)[C@@H]1NC(=O)[C@H](CC(C)C)N(C)C(=O)C[C@@H](C(=O)N2CCCC2)N(C)C(=O)[C@H](C2CCCCC2)N(C)C(=O)C2(CCC2)NC(=O)[C@@H]2CCCN2C(=O)[C@H](CCc2ccc(C(F)(F)F)c(Cl)c2)NC(=O)CN(C)C(=O)[C@H](CC2CCCCC2)N(C)C(=O)CN(C)C(=O)CN(C)C1=O [Compound 1894] ([NMeL]I[Sar][Sar][NMeCha][Sar][hPhe(3-Cl-4-CF3)]P[Ac4c][NMeChg][NMeD]-Pyrrolidide; lactam N-11) | 0.55
4 | CC[C@H](C)[C@@H]1NC(=O)[C@H](CC(C)C)N(C)C(=O)C[C@@H](C(=O)N2CCCCC2)N(C)C(=O)[C@H]([C@@H](C)CC)N(C)C(=O)C2(CCCC2)NC(=O)[C@@H](Cc2ccccc2)N(C)C(=O)[C@H](CCc2cc(F)c(C(F)(F)F)c(F)c2)NC(=O)CN(C)C(=O)[C@H](Cc2ccc(C)cc2)N(C)C(=O)[C@@H]2CCN2C(=O)[C@H](C)N(C)C1=O [Compound 1895] ([NMeL]I[NMeA][Aze][NMePhe(4-Me)][Sar][hPhe(3,5-F2-4-CF3)][dNMeF][Ac5c][NMeI][NMeD]-Piperidide; lactam N-11) | 360
5 | CC[C@H](C)[C@@H]1NC(=O)[C@H](CC(C)C)N(C)C(=O)C[C@@H](C(=O)N(C)C)N(C)C(=O)[C@H]([C@@H](C)CC)N(C)C(=O)[C@H](C(C)C)NC(=O)[C@H](Cc2ccncc2)N(C)C(=O)[C@H](CCc2ccc(C(F)(F)F)c(Cl)c2)NC(=O)CN(C)C(=O)[C@H](Cc2ccc(C)cc2)N(C)C(=O)[C@@H]2CCN2C(=O)[C@H](C)N(C)C1=O [Compound 1897] ([NMeL]I[NMeA][Aze][NMePhe(4-Me)][Sar][hPhe(3-Cl-4-CF3)][NMe4Pal]V[NMeI][NMeD]-NMe2; lactam N-11) | 9.9
6 | CC[C@H](C)[C@@H]1NC(=O)[C@H](CC(C)C)N(C)C(=O)C[C@@H](C(=O)N(C)C)N(C)C(=O)[C@H]([C@@H](C)CC)N(C)C(=O)C2(CCCC2)NC(=O)[C@H](CCC(F)F)N(C)C(=O)[C@H](CCc2ccc(C(F)(F)F)c(Cl)c2)NC(=O)CN(C)C(=O)[C@H](Cc2ccc(C)cc2)N(C)C(=O)[C@@H]2CCN2C(=O)[C@H](C)N(C)C1=O [Compound 1898] ([NMeL]I[NMeA][Aze][NMePhe(4-Me)][Sar][hPhe(3-Cl-4-CF3)][NMeNva(5,5-F2)][Ac5c][NMeI][NMeD]-NMe2; lactam N-11) | 0.93
7 | CC[C@H](C)[C@@H]1NC(=O)[C@H](CC(C)C)N(C)C(=O)C[C@@H](C(=O)N(C)C)N(C)C(=O)[C@H]([C@@H](C)CC)N(C)C(=O)C2(CCCC2)NC(=O)[C@H](Cc2ccc(OC(F)(F)F)cc2)N(C)C(=O)[C@H](CCc2ccc(C(F)(F)F)c(Cl)c2)NC(=O)CN(C)C(=O)[C@H](Cc2ccc(C)cc2)N(C)C(=O)[C@@H]2CCN2C(=O)[C@H](C)N(C)C1=O [Compound 1902] ([NMeL]I[NMeA][Aze][NMePhe(4-Me)][Sar][hPhe(3-Cl-4-CF3)][NMeY](CF3)[Ac5c][NMeI][NMeD]-NMe2; lactam N-11) | 54
